Values joined by “and” are separate entries in the source; they are usually repeats but may differ in a detail not shown here. Identical values can stand only once.
Target: HIV-1 wild-type protease (Human immunodeficiency virus type 1 group M subtype B, UniProt P04585)
Experiment: Fluorometric HIV-1 protease assay (SensoLyte 520 HIV Protease Assay Kit)
Assay type: biochemical
Details: for enzyme inhibition (relative activity): at 1 μM, 100 nM and 10 nM
Experimental: The inhibitory effects of the described compounds against HIV-1 wild-type protease were assessed utilizing the fluorometric HIV-1 protease assay kit (SensoLyte 520 HIV Protease Assay Kit AS-71147, AnaSpec Inc., USA), following the manufacturer’s recommended protocol. […] Additionally, 0.01% (v/v) DMSO was employed as the negative control. […] The tested compounds 9a–g were dissolved in 100% DMSO and further diluted with the assay buffer provided in the kit to varying concentrations. The fluorescence was measured in kinetic mode at 490 nm (excitation) and 520 nm (emission) for 90 min at 37 °C using the Varioskan LUX multimode microplate reader (Thermo Fisher Scientific Inc. USA). The raw data obtained were subsequently normalized relative to the controls, with 0.01% DMSO set as 0% inhibitory activity. The IC50 values were calculated by fitting the data to a four-parameter log(inhibitor) vs response equation using GraphPad Prism version 9.5.0 (GraphPad Software, San Diego, California, USA).

SMILES | enzyme inhibition (relative activity) (result in words) | IC50 (IC50, wild-type HIV-1 protease, four-parameter log(inhibitor) vs response fit) | inhibitory effect (at 1 μM and 100 nM, result in words)
NC(=O)CNC(=O)C(Cc1ccccc1)CP(=O)(O)CC(Cc1ccccc1)C(=O)NCC(N)=O (stereo not shown) [Compound 9a, Bis(3-((2-amino-2-oxoethyl)amino)-2-benzyl-3-oxopropyl)phosphinic Acid] | did not exhibit any significant inhibitory effect | – | –
CC(C)[C@H](NC(=O)C(Cc1ccccc1)CP(=O)(O)CC(Cc1ccccc1)C(=O)N[C@H](C(N)=O)C(C)C)C(N)=O (stereo partly drawn) [Compound 9c, Bis(3-(((S)-1-amino-3-methyl-1-oxobutan-2-yl)amino)-2-benzyl-3-oxopropyl)phosphinic Acid] | – | 0.033 µM and 0.0331 µM | pronounced inhibitory effect comparable to that of Darunavir
C[C@H](NC(=O)C(Cc1ccccc1)CP(=O)(O)CC(Cc1ccccc1)C(=O)N[C@@H](C)C(N)=O)C(N)=O (stereo partly drawn) [Compound 9b, Bis(3-(((S)-1-amino-1-oxopropan-2-yl)amino)-2-benzyl-3-oxopropyl)phosphinic Acid] | only weak inhibition | – | –
NC(=O)[C@@H]1CCCN1C(=O)C(Cc1ccccc1)CP(=O)(O)CC(Cc1ccccc1)C(=O)N1CCC[C@H]1C(N)=O (stereo partly drawn) [Compound 9f, Bis(2-benzyl-3-((S)-2-carbamoylpyrrolidin-1-yl)-3-oxopropyl)phosphinic Acid] | did not exhibit any significant inhibitory effect | – | –
CC(C)C[C@H](NC(=O)C(Cc1ccccc1)CP(=O)(O)CC(Cc1ccccc1)C(=O)N[C@@H](CC(C)C)C(N)=O)C(N)=O (stereo partly drawn) [Compound 9d, Bis(3-(((S)-1-amino-4-methyl-1-oxopentan-2-yl)amino)-2-benzyl-3-oxopropyl)phosphinic Acid] | moderate level of enzyme inhibition | – | –
NC(=O)[C@H](Cc1ccccc1)NC(=O)C(Cc1ccccc1)CP(=O)(O)CC(Cc1ccccc1)C(=O)N[C@@H](Cc1ccccc1)C(N)=O (stereo partly drawn) [Compound 9e, Bis(3-(((S)-1-amino-1-oxo-3-phenylpropan-2-yl)amino)-2-benzyl-3-oxopropyl)phosphinic Acid] | only weak inhibition | – | –

From PMC12750381 (ACS Omega, 2025)
